US9522163B2, “Methods of treating hepatitis” (priority 2002, dated 2016)
Entries after “also recorded” stand apart in the source; their conditions may differ.

Assays:
[1] = test system: mouse primary hepatocytes; test: TNF-α/ActD-induced cell death, crystal violet viability; type: cell-based
Protocol: Mouse primary hepatocytes were harvested from C57BL/6J, mkk3^−/−, inos^−/− (in-house breeding colony), or hmox-1^−/− mice as described in Kim et al. (J. Biol. Chem. 272: 1402-1411 (1997)). Hepatocytes were used on days 1-3 following harvest.
(§1) Cells were treated with TNF-α (10 ng/ml) and actinomycin-D (Act-D; 200 ng/ml, Sigma Chemical Co. St. Louis, Mo.) to induce cell death.
Whether exogenous CO is protective against hepatocyte cell death in vitro was investigated. To generate the data presented in FIG. 2, mouse hepatocytes were pre-incubated with CO (250 ppm) for 1 hr (standard pre-treatment time for all experiments) prior to addition of TNF-α/Act-D (10 ng/200 ng/ml respectively). Cells were maintained in CO for the duration of the experiment. Twelve hours afterward, cell viability was measured as described in Kim et al. (J. Biol. Chem. 272: 1402-1411 (1997)). Adenoviral experiments involved incubating hepatocytes overnight with 10 pfu/cell of the adenovirus prior to addition of TNF-α/ActD, and then assaying for viability using crystal violet. The roles of signaling molecules guanylyl cyclase and p38 MAPK were also investigated in this model. To evaluate the role of cGMP and confirm the role of NF-κB, hepatocytes were treated separately with the soluble guanylate cyclase (sGC) inhibitor 1H-[1,2,4]Oxadiazolo[4,3-a]quinoxalin-1-one (ODQ; Calbiochem; 2-10 μM) or the NF-κB inhibitor BAY 11-7082, (10 μM). Cells were treated with the inhibitors for 1 hour prior to the 1 hour pretreatment with CO. TNF-α/ActD was then added and the cells tested for viability 12 hours later. NF-κB activation was critical to the protection elicited by CO while cGMP was not involved.
To generate the data presented in FIG. 9, mouse hepatocytes were isolated from inos^−/− or from wild type C57BL/6J mice, which were then pre-treated for 1 hr with L-NIO (1 mM) to inhibit iNOS prior to CO administration. Those groups exposed to CO received a one-hour pretreatment prior to addition of TNF-α/ActD and were then returned to CO exposure.
To generate the data presented in FIG. 19, mouse hepatocytes were isolated from HO-1 null mice (hmox-1^−/−) and wild type (C57BL/6J) littermates, pretreated for 1 hour with CO (250 ppm), and treated with TNF-α/ActD. Viability was assayed as described above.
To generate the data presented in FIG. 20, mouse hepatocytes were isolated from HO-1 null mice (hmox-1^−/−) and wild type (C57BL/6J) littermates, pretreated with the NO donor SNAP (500 μM), and then treated with TNF-α/ActD 1 hour later.

[2] = test system: human primary hepatocytes; test: TNF-α/ActD-induced cell death in human hepatocytes; type: cell-based; conditions: exposure to CO
Protocol: as §1
To generate the data presented in FIG. 3, human primary hepatocytes obtained from a donor liver resection were treated with CO and TNF-α/ActD as described above.

[3] = test system: HO-1; test: Liver HO-1 expression (immunoblot); type: in vivo, mice
Protocol: Western blot analysis was performed on primary hepatocytes in culture or from liver homogenates with antibodies to iNOS (Transduction Laboratories, Lexington, Ky.; 1:1000), HO-1 (Calbiochem; 1:2000), or β-actin (Sigma Chemical; 1:5000). Thirty μg protein in cell culture experiments or 100 μg protein from liver homogenates was loaded per well for SDS-PAGE.
To assess the role of iNOS on TNF-α/D-gal-induced HO-1 expression in the liver (data presented in FIG. 16), mice were administered L-NIL (5 mg/kg, i.p.) 2 hr prior to pre-treatment with CO (250 ppm) and every 2 hr thereafter. Control mice received L-NIL and remained in room air.

[4] = test system: LPS/D-Gal-induced liver injury; test: LPS/D-Gal acute hepatitis model; type: in vivo, mice
Protocol: Results discussed above were confirmed using lipopolysaccharide (LPS, also referred to as endotoxin) in place of TNF. […] In mice pretreated with 250 ppm CO, the increase in ALT was reduced by >75%, to 250+/−75 IU/ml. To further characterize the effects observed with CO in this model, serum interleukin-6 was measured, and found to be reduced 65% in animals breathing CO vs air-breathing controls (data not shown). […] Few changes in the markers of inflammation (edema, hemorrhage, neutrophil infiltration) were observed. Architecture was maintained and appeared grossly similar to untreated and CO (in the absence of LPS/D-Gal)-treated mice. Overall, the use of LPS/D-Gal to induce acute hepatitis paralleled and confirmed data generated using TNF/D-Gal treatment.

[5] = test system: NF-κB; test: NF-κB luciferase reporter assay in hepatocytes; type: cell-based, mouse; conditions: CO 250 ppm; reporter activity peaked one hour after placing cells in CO
Protocol: In some experiments, gene transfer of an IκBα superrepressor (Hellerbrand et al., Hepatology 27:1285-1295 (1998)) or β-galactosidase using adenoviral vectors (10 pfu/cell) was performed 12 hours prior to TNF-α/ActD treatment. NF-κB activation was evaluated using a luciferase reporter assay as described in Chow et al. (J. Biol. Chem. 274: 10689-10692 (1999)). Briefly, hepatocytes were co-transfected with NF-κB reporter constructs (pGL3-kappaβ luciferase, 100 ng/well; and pIEP-Lac-z 0.5 μg/well) using Lipofectin™ (Invitrogen, Carlsbad, Calif.) as instructed by the manufacturer. Evaluation of iNOS expression was performed using a luciferase reporter assay as described in Lowenstein et al. (Proc. Natl. Acad. Sci. U.S.A 90: 9730-9734 (1993)). Briefly, hepatocytes were co-transfected with iNOS promoter reporter constructs (pXP2; 1 μg/well) and pIEP-LacZ (0.5 μg/well) as described above.
Hepatocytes were transfected with plasmids as described above and treated with various stimuli 24 hours after transfection. […] Results were corrected for transfection efficiency and protein concentration.
To generate the data presented in FIG. 4, evaluation of NF-κB activation was performed using a luciferase reporter assay as described in Chow et al. (J. Biol. Chem. 274: 10689-10692 (1999)). […]

[6] = test system: hemorrhagic shock liver injury; test: Murine model of hemorrhagic shock, liver injury; type: in vivo; conditions: inhaled CO during resuscitation after 2.5 hour shock phase; at 24 hr
[7] = pretreated with 250 ppm CO, 8 hours after LPS/D-Gal

[C-]#[O+] [CO, carbon monoxide]
TNF-α/ActD-induced cell death, hmox-1−/− hepatocytes ([1]; CO 250 ppm, 1 hour pretreatment): unable to protect | TNF-α/ActD-induced cell death, wild type hepatocytes ([1]; CO 250 ppm, 1 hr pre-incubation and maintained, viability 12 hours): significantly less cell death; also recorded: significantly protected | Cell death in the presence of SB203580 ([1]; SB203580 3-30 μM, data not shown): inhibited cell death | Cell death in hepatocytes from mkk3−/− mice ([1]; data not shown): inhibited cell death | Protection when CO treatment initiated after addition of TNF-α ([1]; data not shown): less protection was observed | Protection against cell death where iNOS expression was absent or inhibited ([1]; inos−/− hepatocytes or wild type with L-NIO 1 mM, 12 hr): did not provide protection | TNF-α induced apoptosis [2]: inhibited TNF-α induced apoptosis | Liver HO-1 expression when iNOS was inhibited ([3]; CO 250 ppm with L-NIL 5 mg/kg i.p. every 2 hr): unable to induce expression | Liver HO-1 expression ([3]; CO 250 ppm, presence and absence of TNF-α/D-gal): significant increase | Liver histopathology ([4]; CO and LPS/D-Gal): protected to the same extent | Serum interleukin-6 reduced vs air-breathing controls ([4]; animals breathing CO, LPS/D-Gal, data not shown): 65% | Reduction of the increase in serum ALT [4, 7]: > 75% | Serum ALT [4, 7]: 250+/−75 IU/ml | NF-κB activation (luciferase reporter, EMSA, immunostaining) [5]: moderate increase | Reduction in serum ALT [6]: > 65%
